Marks after values point to notes of the source that are not given here.
Key:
E. coli [1] = assay: UV-visible bacterial assay (optical density at 570 nm); type: cell-based
E. coli [2] = assay: CFU-based bacterial assay; type: cell-based
Description: Each sample set was evaluated using at least one of the following assays: (1) a CFU-based bacterial assay; […] As explained above, following sample incubation the samples were evaluated for the level of bacterial growth using a CFU-based bacterial assay and/or a UV-visible bacterial assay. The CFU-based bacterial assay involves serially diluting samples by various dilution factors, plating the surface of pre-poured LB plates, and manually counting the resulting sample cultures to measure the level of growth based on log10 CFU/ml. CFU per ml were calculated by counting the number of colonies on the plate with growths ranging from 30 and 300, and then applying the equation (1): In this CFU-based bacterial assay, the levels of activity corresponding to the control samples (no E. coli) were set as the zero points.

O.O.O.O.O.O.O.O=S(=O)([O-])[O-].[Fe+2] [Example 21, iron (II) sulfate heptahydrate]
Antibacterial potential category from OD at 570 nm (E. coli [1]): 0.291 ^q) (key: Complete Kill Candidate (<0.250); p: Inhibition-Kill Candidate (0.250-0.350); q: Inhibition Candidate (0.351-0.450); <10^8 Growth Candidate (0.451-1.250); Robust Growth Candidate (>1.251)) | 24 Hour log10 CFU/ml (E. coli [2]): 0 log10 CFU/ml

O.O.O.O.O.O=S(=O)([O-])[O-].[Cu+2] [Example 22, copper (II) sulfate pentahydrate]
Antibacterial potential category from OD at 570 nm (E. coli [1]): 0.734 ^r) (key: Complete Kill Candidate (<0.250); p: Inhibition-Kill Candidate (0.250-0.350); q: Inhibition Candidate (0.351-0.450); <10^8 Growth Candidate (0.451-1.250); Robust Growth Candidate (>1.251)) | UV-Vis Abs @ 570 nm (Optical Density (OD)) (E. coli [1]): 0.734 ^r) | 24 Hour log10 CFU/ml (E. coli [2]): 7.8 log10 CFU/ml

O.O.O.O.O.O=S(=O)([O-])[O-].[Cu+2] [Example 23, copper (II) sulfate pentahydrate]
24 Hour log10 CFU/ml (E. coli [2]): 2.4 log10 CFU/ml

O.O.O.O.O.O.O.O=S(=O)([O-])[O-].[Fe+2] [Example 20, iron (II) sulfate heptahydrate]
Antibacterial potential category from OD at 570 nm (E. coli [1]): 1.172 ^s) (key: Complete Kill Candidate (<0.250); p: Inhibition-Kill Candidate (0.250-0.350); q: Inhibition Candidate (0.351-0.450); <10^8 Growth Candidate (0.451-1.250); Robust Growth Candidate (>1.251)) | 24 Hour log10 CFU/ml (E. coli [2]): 8.8 log10 CFU/ml

O.O.O.O.O.O=S(=O)([O-])[O-].[Cu+2] [Example 24, copper (II) sulfate pentahydrate]
Antibacterial potential category from OD at 570 nm (E. coli [1]): 0.055 ^p) (key: Complete Kill Candidate (<0.250); p: Inhibition-Kill Candidate (0.250-0.350); q: Inhibition Candidate (0.351-0.450); <10^8 Growth Candidate (0.451-1.250); Robust Growth Candidate (>1.251)) | UV-Vis Abs @ 570 nm (Optical Density (OD)) (E. coli [1]): 0.055 ^p) | 24 Hour log10 CFU/ml (E. coli [2]): 0 log10 CFU/ml

Source: US20190374572A1, “KAOLINIC CLAYS WITH ANTIMICROBIAL ACTIVITY” (IMERYS USA, INC., priority 2017, published 2019)
